Measured values taken from ChEMBL document CHEMBL1127385, “Synthesis and diuretic activity of alkyl- and arylguanidine analogs of N,N'-dicyclohexyl-4-morpholinecarboxamidine in rats and dogs” (J Med Chem, 1994).

Columns and labels:
Rattus norvegicus [1] = assay: Total electrolytic excretion of chlorine in urine of rats after peroral administration of 31.6 uM/Kg of drug; assay type: ADME, organism-based; conditions: in vivo, po
Rattus norvegicus [2] = assay: Total electrolytic excretion of chlorine in urine of rats after peroral administration of 316 uM/Kg of drug; assay type: ADME, organism-based; conditions: in vivo, po
Rattus norvegicus [3] = assay: Total electrolytic excretion of potassium in urine of rats after peroral administration of 94.9 uM/Kg of drug; assay type: ADME, organism-based; conditions: in vivo, po
Rattus norvegicus [4] = assay: Total electrolytic excretion of potassium in urine of rats after peroral administration of 31.6 uM/Kg of drug; assay type: ADME, organism-based; conditions: in vivo, po
Rattus norvegicus [5] = assay: Total electrolytic excretion of potassium in urine of rats after peroral administration of 316 uM/Kg of drug; assay type: ADME, organism-based; conditions: in vivo, po
Rattus norvegicus [6] = assay: Total electrolytic excretion of sodium in urine of rats after peroral administration of 94.9 uM/Kg of drug; assay type: ADME, organism-based; conditions: in vivo, po
Rattus norvegicus [7] = assay: Tested for the diuretic activity by measuring the urinary volume after peroral administering 94.9 uM/Kg of drug in rats; assay type: ADME, organism-based, Urine; conditions: in vivo, po
Rattus norvegicus [8] = assay: Tested for the diuretic activity by measuring the urinary volume after peroral administering 31.6 uM/Kg of drug in rats; assay type: ADME, organism-based, Urine; conditions: in vivo, po
Rattus norvegicus [9] = assay: Tested for the diuretic activity by measuring the urinary volume after peroral administering 316 uM/Kg of drug in rats; assay type: ADME, organism-based, Urine; conditions: in vivo, po
Rattus norvegicus [10] = assay: Total electrolytic excretion of sodium in urine of rats after peroral administration of 31.6 uM/Kg of drug; assay type: ADME, organism-based; conditions: in vivo, po
Rattus norvegicus [11] = assay: Total electrolytic excretion of sodium in urine of rats after peroral administration of 316 uM/Kg of drug; assay type: ADME, organism-based; conditions: in vivo, po
Rattus norvegicus [12] = assay: Ratio of Total electrolytic excretion of sodium and potassium in urine of rats after peroral administration of 31.6 uM/Kg of drug; assay type: ADME, organism-based; conditions: in vivo, po
Rattus norvegicus [13] = assay: Ratio of Total electrolytic excretion of sodium and potassium in urine of rats after peroral administration of 316 uM/Kg of drug; assay type: ADME, organism-based; conditions: in vivo, po
Rattus norvegicus [14] = assay: Ratio of Total electrolytic excretion of sodium and potassium in urine of rats after peroral administration of 94.9 uM/Kg of drug; assay type: ADME, organism-based; conditions: in vivo, po
Rattus norvegicus [15] = assay: Total electrolytic excretion of chlorine in urine of rats after peroral administration of 94.9 uM/Kg of drug; assay type: ADME, organism-based; conditions: in vivo, po
Rattus norvegicus [16] = assay: Total electrolytic excretion of chlorine in urine of rats after peroral administration of 83.8 uM/Kg of drug; assay type: ADME, organism-based; conditions: in vivo, po
Rattus norvegicus [17] = assay: Total electrolytic excretion of chlorine in urine of rats after peroral administration of 27.9 uM/Kg of drug; assay type: ADME, organism-based; conditions: in vivo, po
Rattus norvegicus [18] = assay: Total electrolytic excretion of chlorine in urine of rats after peroral administration of 279 uM/Kg of drug; assay type: ADME, organism-based; conditions: in vivo, po
Rattus norvegicus [19] = assay: Total electrolytic excretion of potassium in urine of rats after peroral administration of 27.9 uM/Kg of drug; assay type: ADME, organism-based; conditions: in vivo, po
Rattus norvegicus [20] = assay: Total electrolytic excretion of potassium in urine of rats after peroral administration of 83.8 uM/Kg of drug; assay type: ADME, organism-based; conditions: in vivo, po
Rattus norvegicus [21] = assay: Total electrolytic excretion of potassium in urine of rats after peroral administration of 279 uM/Kg of drug; assay type: ADME, organism-based; conditions: in vivo, po
Rattus norvegicus [22] = assay: Tested for the diuretic activity by measuring the urinary volume after peroral administering 83.8 uM/Kg of drug in rats; assay type: ADME, organism-based, Urine; conditions: in vivo, po
Rattus norvegicus [23] = assay: Total electrolytic excretion of sodium in urine of rats after peroral administration of 27.9 uM/Kg of drug; assay type: ADME, organism-based; conditions: in vivo, po
Rattus norvegicus [24] = assay: Total electrolytic excretion of sodium in urine of rats after peroral administration of 279 uM/Kg of drug; assay type: ADME, organism-based; conditions: in vivo, po
Rattus norvegicus [25] = assay: Total electrolytic excretion of sodium in urine of rats after peroral administration of 83.8 uM/Kg of drug; assay type: ADME, organism-based; conditions: in vivo, po
Rattus norvegicus [26] = assay: Tested for the diuretic activity by measuring the urinary volume after peroral administering 27.9 uM/Kg of drug in rats; assay type: ADME, organism-based, Urine; conditions: in vivo, po
Rattus norvegicus [27] = assay: Tested for the diuretic activity by measuring the urinary volume after peroral administering 279 uM/Kg of drug in rats; assay type: ADME, organism-based, Urine; conditions: in vivo, po
Rattus norvegicus [28] = assay: Ratio of Total electrolytic excretion of sodium and potassium in urine of rats after peroral administration of 279 uM/Kg of drug; assay type: ADME, organism-based; conditions: in vivo, po
Rattus norvegicus [29] = assay: Ratio of Total electrolytic excretion of sodium and potassium in urine of rats after peroral administration of 83.8 uM/Kg of drug; assay type: ADME, organism-based; conditions: in vivo, po
Rattus norvegicus [30] = assay: Ratio of Total electrolytic excretion of sodium and potassium in urine of rats after peroral administration of 27.9 uM/Kg of drug; assay type: ADME, organism-based; conditions: in vivo, po
Canis familiaris [31] = assay: Total electrolytic excretion of potassium in urine of dogs after intravenous administration of 11.9 uM/Kg of drug; assay type: ADME, organism-based, Canis lupus familiaris; conditions: dog, in vivo
Rattus norvegicus [32] = assay: Total electrolytic excretion of sodium in urine of rats after peroral administration of 239 uM/Kg of drug; assay type: ADME, organism-based; conditions: in vivo, po
Rattus norvegicus [33] = assay: Total electrolytic excretion of potassium in urine of rats after peroral administration of 71.6 uM/Kg of drug; assay type: ADME, organism-based; conditions: in vivo, po
Rattus norvegicus [34] = assay: Total electrolytic excretion of chlorine in urine of rats after peroral administration of 23.9 uM/Kg of drug; assay type: ADME, organism-based; conditions: in vivo, po
Rattus norvegicus [35] = assay: Total electrolytic excretion of chlorine in urine of rats after peroral administration of 239 uM/Kg of drug; assay type: ADME, organism-based; conditions: in vivo, po
Canis familiaris [36] = assay: Total electrolytic excretion of chlorine in urine of dogs after intravenous administration of 11.9 uM/Kg of drug; assay type: ADME, organism-based, Canis lupus familiaris; conditions: dog, in vivo
Canis familiaris [37] = assay: Total electrolytic excretion of sodium in urine of dogs after intravenous administration of 11.9 uM/Kg of drug; assay type: ADME, organism-based, Canis lupus familiaris; conditions: dog, in vivo
Rattus norvegicus [38] = assay: Total electrolytic excretion of potassium in urine of rats after peroral administration of 23.9 uM/Kg of drug; assay type: ADME, organism-based; conditions: in vivo, po
Rattus norvegicus [39] = assay: Total electrolytic excretion of potassium in urine of rats after peroral administration of 239 uM/Kg of drug; assay type: ADME, organism-based; conditions: in vivo, po
Rattus norvegicus [40] = assay: Total electrolytic excretion of chlorine in urine of rats after peroral administration of 71.6 uM/Kg of drug; assay type: ADME, organism-based; conditions: in vivo, po
Rattus norvegicus [41] = assay: Tested for the diuretic activity by measuring the urinary volume after peroral administering 71.6 uM/Kg of drug in rats; assay type: ADME, organism-based, Urine; conditions: in vivo, po
Rattus norvegicus [42] = assay: Total electrolytic excretion of sodium in urine of rats after peroral administration of 71.6 uM/Kg of drug; assay type: ADME, organism-based; conditions: in vivo, po
Rattus norvegicus [43] = assay: Tested for the diuretic activity by measuring the urinary volume after peroral administering 23.9 uM/Kg of drug in rats; assay type: ADME, organism-based, Urine; conditions: in vivo, po
Rattus norvegicus [44] = assay: Tested for the diuretic activity by measuring the urinary volume after peroral administering 239 uM/Kg of drug in rats; assay type: ADME, organism-based, Urine; conditions: in vivo, po
Canis familiaris [45] = assay: Tested for the diuretic activity by measuring the urinary volume after intravenous administering 11.9 uM/Kg of drug in dogs; assay type: ADME, organism-based, Canis lupus familiaris, Urine; conditions: dog, in vivo
Rattus norvegicus [46] = assay: Total electrolytic excretion of sodium in urine of rats after peroral administration of 23.9 uM/Kg of drug; assay type: ADME, organism-based; conditions: in vivo, po
Rattus norvegicus [47] = assay: Ratio of Total electrolytic excretion of sodium and potassium in urine of rats after peroral administration of 23.9 uM/Kg of drug; assay type: ADME, organism-based; conditions: in vivo, po
Rattus norvegicus [48] = assay: Ratio of Total electrolytic excretion of sodium and potassium in urine of rats after peroral administration of 239 uM/Kg of drug; assay type: ADME, organism-based; conditions: in vivo, po
Rattus norvegicus [49] = assay: Ratio of Total electrolytic excretion of sodium and potassium in urine of rats after intravenous administration of 11.9 uM/Kg of drug; assay type: ADME, organism-based; conditions: in vivo
Rattus norvegicus [50] = assay: Ratio of Total electrolytic excretion of sodium and potassium in urine of rats after peroral administration of 71.6 uM/Kg of drug; assay type: ADME, organism-based; conditions: in vivo, po

C1CCC(N/C(=N/C2CCCC2)N2CCOCC2)CC1
Excretion Cl- (Rattus norvegicus [1]): 0.65 m equiv
Excretion Cl- (Rattus norvegicus [2]): 1.4 m equiv
Excretion K+ (Rattus norvegicus [3]): 0.26 m equiv
Excretion K+ (Rattus norvegicus [4]): 0.28 m equiv
Excretion K+ (Rattus norvegicus [5]): 0.32 m equiv
Excretion Na+ (Rattus norvegicus [6]): 0.84 m equiv
V (Rattus norvegicus [7]): 6.3 mL
V (Rattus norvegicus [8]): 3.8 mL
V (Rattus norvegicus [9]): 8.9 mL
Excretion Na+ (Rattus norvegicus [10]): 0.62 m equiv
Excretion Na+ (Rattus norvegicus [11]): 1.32 m equiv
Ratio (Rattus norvegicus [12]): 2.2
Ratio (Rattus norvegicus [13]): 4.1
Ratio (Rattus norvegicus [14]): 3.2
Excretion Cl- (Rattus norvegicus [15]): 0.92 m equiv

Clc1ccccc1N/C(=N/C1CCCCC1)N1CCOCC1
Excretion Cl- (Rattus norvegicus [16]): 1.06 m equiv
Excretion Cl- (Rattus norvegicus [17]): 0.84 m equiv
Excretion Cl- (Rattus norvegicus [18]): 1.46 m equiv
Excretion K+ (Rattus norvegicus [19]): 0.24 m equiv
Excretion K+ (Rattus norvegicus [20]): 0.29 m equiv
Excretion K+ (Rattus norvegicus [21]): 0.31 m equiv
V (Rattus norvegicus [22]): 7.7 mL
Excretion Na+ (Rattus norvegicus [23]): 0.72 m equiv
Excretion Na+ (Rattus norvegicus [24]): 1.45 m equiv
Excretion Na+ (Rattus norvegicus [25]): 1.01 m equiv
V (Rattus norvegicus [26]): 6.2 mL
V (Rattus norvegicus [27]): 11.2 mL
Ratio (Rattus norvegicus [28]): 4.7
Ratio (Rattus norvegicus [29]): 3.5
Ratio (Rattus norvegicus [30]): 3

Clc1ccc(N/C(=N/C2CCCCC2)N2CCOCC2)cc1Cl
Excretion K+ (Canis familiaris [31]): 1.1 m equiv
Excretion Na+ (Rattus norvegicus [32]): 1.92 m equiv
Excretion K+ (Rattus norvegicus [33]): 0.32 m equiv
Excretion Cl- (Rattus norvegicus [34]): 1.17 m equiv
Excretion Cl- (Rattus norvegicus [35]): 1.69 m equiv
Excretion Cl- (Canis familiaris [36]): 5.7 m equiv
Excretion Na+ (Canis familiaris [37]): 8.5 m equiv
Excretion K+ (Rattus norvegicus [38]): 0.27 m equiv
Excretion K+ (Rattus norvegicus [39]): 0.33 m equiv
Excretion Cl- (Rattus norvegicus [40]): 1.45 m equiv
V (Rattus norvegicus [41]): 10.6 mL
Excretion Na+ (Rattus norvegicus [42]): 1.41 m equiv
V (Rattus norvegicus [43]): 7.4 mL
V (Rattus norvegicus [44]): 13.2 mL
V (Canis familiaris [45]): 57 mL
Excretion Na+ (Rattus norvegicus [46]): 1.1 m equiv
Ratio (Rattus norvegicus [47]): 4.1 [Na+]/[K+]
Ratio (Rattus norvegicus [48]): 5.8 [Na+]/[K+]
Ratio (Rattus norvegicus [49]): 7.4 [Na+]/[K+]
Ratio (Rattus norvegicus [50]): 4.4 [Na+]/[K+]
